Reference: patent US12594276B2, “Inhibitors of human immunodeficiency virus replication” (ViiV Healthcare UK (No.5) Limited, priority 2024, dated 2026)

How the values were obtained:
[1] = Compound cytotoxicity, XTT-based colorimetric assay; format: cell-based; conditions: human; uninfected MT2 cells, day 4, XTT; read-out: CC50
Procedure, shortened: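 Uninfected MT2 cells were treated with compound under the same protocol as the antiviral assay. Viability was read on day 4 with an XTT colorimetric assay, from which CC50 values were derived.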

[2] = tested on: recombinant NL4-3 virus (nef section replaced with Renilla luciferase gene) in MT-2 cells; assay: HIV cell culture assay (antiviral activity, luciferase readout); format: cell-based; conditions: Renilla, NL43, MT-2 cells infected for 4-5 days with recombinant NL4-3 Renilla luciferase virus
Procedure, shortened: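 Antiviral EC50 derived from luciferase signal using the exponential median effect equation. Infection of MT-2 cells ran 4-5 days alongside serial dilutions of compound, with virus generated by proviral clone transfection of 293T cells.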

| Structure (SMILES) | CC50 at 4 days [1] [nM] | EC50 [2] [nM] |
| --- | --- | --- |
| CS(=O)(=O)Nc1nn(CCN[C@@H]2CCCOC2)c2c(-n3c([C@H](Cc4cc(F)cc(F)c4)NC(=O)Cn4nc(C(F)F)c5c4C(F)(F)[C@@H]4C[C@H]54)nc4nc(C5CCC(F)(F)CC5)ccc4c3=O)ccc(Cl)c12 (atropisomer, axis not shown; (P)) [Example 40, N-[(1S)-1-[(3P)-3-[4-chloro-3-methanesulfonamido-1-(2-{[(3R)-oxan-3-yl]amino}ethyl)-1H-indazol-7-yl]-7-(4,4-difluorocyclohexyl)-4-oxo-3H,4H-pyrido[2,3-d]pyrimidin-2-yl]-2-(3,5-difluorophenyl)ethyl]-2-[(2S,4R)-9-(difluoromethyl)-5,5-difluoro-7,8-diazatricyclo[4.3.0.0^2,^4]nona-1(6),8-dien-7-yl]acetamide] | > 50 | 0.028 |
| Cc1cc(C2CCC(F)(F)CC2)nc2nc([C@H](Cc3cc(F)cc(F)c3)NC(=O)Cn3nc(C4CC4)c4c3C[C@@H]3C[C@H]43)n(-c3ccc(Cl)c4c(NS(C)(=O)=O)nn(C[C@H](C)N5CC(C)(C)OC(C)(C)C5)c34)c(=O)c12 (relative stereo) [Example 714, N-[(1S)-1-[(3P)-3-{4-chloro-3-methanesulfonamido-1-[(2S)-2-(2,2,6,6-tetramethylmorpholin-4-yl)propyl]-1H-indazol-7-yl}-7-(4,4-difluorocyclohexyl)-5-methyl-4-oxo-3H,4H-pyrido[2,3-d]pyrimidin-2-yl]-2-(3,5-difluorophenyl)ethyl]-2-[(2R*,4R*)-9-cyclopropyl-7,8-diazatricyclo[4.3.0.0^2,4]nona-1(6),8-dien-7-yl]acetamide] | > 20 | 0.024 |
| Cc1cc(C2(F)CCC(F)(F)CC2)nc2nc([C@H](Cc3cc(F)cc(F)c3)NC(=O)Cn3nc(C(F)(F)F)c4c3C[C@@H]3C[C@H]43)n(-c3ccc(Cl)c4c(NS(C)(=O)=O)nn(CCN5C[C@@H](C)O[C@@H](C)C5)c34)c(=O)c12 (atropisomer, axis not shown; (P)) [Example 597, N-[(1S)-1-[(3P)-3-(4-chloro-1-{2-[(2R,6S)-2,6-dimethylmorpholin-4-yl]ethyl}-3-methanesulfonamido-1H-indazol-7-yl)-5-methyl-4-oxo-7-(1,4,4-trifluorocyclohexyl)-3H,4H-pyrido[2,3-d]pyrimidin-2-yl]-2-(3,5-difluorophenyl)ethyl]-2-[(2S,4S)-9-(trifluoromethyl)-7,8-diazatricyclo[4.3.0.0^2,^4]nona-1(6),8-dien-7-yl]acetamide] | > 20 | 0.021 |
| Cc1cc(C2CCC(F)(F)CC2)nc2nc([C@H](Cc3cc(F)cc(F)c3)NC(=O)Cn3nc(C(F)(F)F)c4c3C[C@@H]3C[C@H]43)n(-c3ccc(Cl)c4c(NS(C)(=O)=O)nn(CCN5CCOCC5)c34)c(=O)c12 (atropisomer, axis not shown; (P)) [Example 115, N-[(1S)-1-[(3P)-3-{4-chloro-3-methanesulfonamido-1-[2-(morpholin-4-yl)ethyl]-1H-indazol-7-yl}-7-(4,4-difluorocyclohexyl)-5-methyl-4-oxo-3H,4H-pyrido[2,3-d]pyrimidin-2-yl]-2-(3,5-difluorophenyl)ethyl]-2-[(2S,4S)-9-(trifluoromethyl)-7,8-diazatricyclo[4.3.0.0^2,^4]nona-1(6),8-dien-7-yl]acetamide] | > 50 | 0.016 |
